In the Deep4Chem optical property database:
“And” between values parts separate entries of the source, which are not always exact repeats. Identical values can stand only once.

Test: solvent given as SMILES

Compound `Cc1c(C)n2c(COC(=O)c3ccccc3I)c(C)c(=O)n2c1=O` has an absorption maximum (in CCO) of 377 nm.

`CC1(C)c2ccccc2N(c2ccc(C(=C(C#N)C#N)c3ccc(N4c5ccccc5C(C)(C)c5ccccc54)cc3)cc2)c2ccccc21` gave an absorption maximum (in Cc1ccccc1) of 436 nm.

With `CCC1=C(CC)c2cccc3c2c(cc2nc4ccccc4nc23)O1` the absorption maximum (in ClCCl) was 501 nm.

Work on `O=C(O)CCCCCn1c2ccc(Br)cc2c(=O)c2cc(S(=O)(=O)O)ccc21` yielded an absorption maximum (in O) of 416 nm.

With `O=C1c2cc3ccccc3cc2C2=Nc3cccc[n+]3[B-](F)(F)N12` the absorption maximum (in ClCCl) was 396 nm.

With `COc1cc(/C=C/c2ccccc2)cc(OC)c1` the absorption maximum (in CC#N) was 306 nm.

For `CCCCC(CC)COc1ccc2nc(-c3ccc(-c4cccs4)s3)sc2c1` (stereo not drawn), the absorption maximum (in ClCCl) was 382 nm.

Compound `CC1=CC(C)=[N+]2C1=C(c1c3ccccc3cc3ccccc13)c1c(C)cc(C)n1[B-]2(F)F` has an absorption maximum (in CC#N) of 502 nm, an absorption maximum (in CCCCCC) of 504 nm and an absorption maximum (in CCO) of 505 nm. It also gave an absorption maximum (in CN(C)C=O) of 505 nm, an absorption maximum (in Cc1ccccc1) of 508 nm and an absorption maximum (in ClCCl) of 506 nm.

`Oc1ccc(C2=[N+]3C(=C(c4ccccc4)c4cccn4[B-]3(F)F)C=C2)cc1` showed an absorption maximum (in ClC(Cl)Cl) of 541 nm.

With `F[B-]1(F)n2c(-c3ccccc3)cc(-c3cccs3)c2N=C2C(c3cccs3)=CC(c3ccccc3)=[N+]21` the absorption maximum (in ClCCl) was 683 nm.

With `CC(C)=CC(=O)c1cc2c(cc1F)NC(C)(C)CC2=O` the absorption maximum (in CC#N) was 356 nm.

`CCCCCCCCOc1ccc(C#Cc2ccc3oc4ccccc4c3c2)c(OCCCCCCCC)c1` showed an absorption maximum (in ClCCl) of 314 nm.

In the case of `CCC(CC)n1c2ccccc2c2cc3c(cc21)c1ccccc1n3C(CC)CC`, the absorption maximum (in ClC(Cl)Cl) is reported as 419 nm.

With `NCCCCCCCCCCCCN1C(=O)c2ccc3c4ccc5c6c(ccc(c7ccc(c2c37)C1=O)c64)C(=O)N(CCCCCCCCCCCCN)C5=O` the absorption maximum (in CN(C)C=O) was 523 nm.

`Cc1cccc(C)c1/C=C/c1nc(N2CCOCC2)c2c([n+]1[O-])CCCC2` gave an absorption maximum (in ClCCl) of 384 nm.

In the case of `Cc1ccc2nc3c(=O)[nH]c(=O)[nH]c3nc2c1`, the absorption maximum (in CC#N) is reported as 370 nm and the absorption maximum (in ClCCCl) is reported as 368 nm.

`Nc1ccc(C#Cc2ccc3ccc4ccc(C#Cc5ccc(N)cc5)c5ccc2c3c45)cc1` gave an absorption maximum (in C1COCCO1) of 420 nm, an absorption maximum (in CC(C)=O) of 421 nm and an absorption maximum (in CCCCCC) of 421 nm. The absorption maximum (in CCCCCCO) was 421 nm, the absorption maximum (in CCO) was 419 nm and the absorption maximum (in CCOC(C)=O) was 419 nm. It also gave an absorption maximum (in CO) of 415 nm, an absorption maximum (in Cc1ccccc1) of 417 nm and an absorption maximum (in ClCCl) of 417 nm.

Compound `COC(=O)c1ccc(/C=C2\C=C(c3ccc(OC)c(OC)c3)OC2=O)cc1` has an absorption maximum (in C1COCCO1) of 423 nm.

`COc1ccc(N(c2ccc(/C=C(\C)c3ccccc3)cc2)c2ccc(/C=C(\C)c3ccccc3)cc2)cc1` showed an absorption maximum (in Cc1ccccc1) of 364 nm.

In the case of `CCCCc1ccc2ccc3cccc4ccc1c2c34`, the absorption maximum (in CCCCCC) is reported as 338 nm, the absorption maximum (in CO) is reported as 338 nm and the absorption maximum (in ClCCl) is reported as 341 nm.

`F[B-]1(F)Oc2ccccc2-c2nc(-c3ccccc3)c3cc(Cl)ccc3[n+]21` showed an absorption maximum (in Cc1ccccc1) of 395 nm.

`CC(C)(C)c1ccc(C2=C(c3ccc(N(c4ccccc4)c4ccccc4)cc3)S(=O)(=O)c3c2sc(-c2ccc(N(c4ccccc4)c4ccccc4)cc2)c3-c2ccc(C(C)(C)C)cc2)cc1` showed an absorption maximum (in C1CCOC1) of 463 nm.

For `O=C(O)COc1cccc(-c2c3nc(cc4ccc([nH]4)c(-c4cccc(OCC(=O)O)c4)c4nc(cc5ccc2[nH]5)CC4)C=C3)c1`, the absorption maximum (in CS(C)=O) was 644 nm.

`CN1C(=CC2=C([S-])C(=Cc3sc4ccccc4[n+]3C)C2=O)C(C)(C)c2ccccc21` showed an absorption maximum (in ClC(Cl)Cl) of 661 nm.

For `COC(=O)c1c(-c2cc3ccccc3oc2=O)nn(-c2cccc(Cl)c2)c1C(=O)OC`, the absorption maximum (in ClCCl) was 273 nm.

`CC1=[N+]2C(=C(c3ccc(N(C)C)cc3)c3ccc(C)n3[B-]2(F)F)C=C1` showed an absorption maximum (in C1CCCCC1) of 508 nm, an absorption maximum (in C1CCOC1) of 506 nm and an absorption maximum (in CC#N) of 503 nm. It also gave an absorption maximum (in CC(=O)C(C)(C)C) of 505 nm, an absorption maximum (in CC(C)=O) of 504 nm and an absorption maximum (in CCCCCC) of 507 nm. The absorption maximum (in CCOC(C)=O) was 505 nm and 504 nm, the absorption maximum (in CO) was 504 nm and 503 nm and the absorption maximum (in Cc1ccccc1) was 509 nm. For the same compound, the absorption maximum (in ClC(Cl)Cl) was 509 nm.

Work on `CCCCCCCCCCC1(CCCCCCCCCC)c2cc(N3C(=O)c4ccc5c6ccc7c8c(ccc(c9ccc(c4c59)C3=O)c86)C(=O)N(c3ccc4c(c3)C(CCCCCCCCCC)(CCCCCCCCCC)c3cc(N(c5ccccc5)c5ccccc5)ccc3-4)C7=O)ccc2-c2ccc(N(c3ccccc3)c3ccccc3)cc21` yielded an absorption maximum (in Cc1ccccc1) of 528 nm and an absorption maximum (in ClCCl) of 527 nm.

Work on `COc1ccc(-c2nnc(-c3cc(-n4c5ccccc5c5ccccc54)c(-n4c5ccccc5c5ccccc54)cc3-c3nnc(-c4ccc(OC)cc4)o3)o2)cc1` yielded an absorption maximum (in ClCCl) of 353 nm.

With `N#Cc1ccc(-c2cn3cc(-c4ccccc4)c[n+]3[n-]2)cc1` the absorption maximum (in ClCCl) was 383 nm.

`O=C(O)CCCCCn1c2ccccc2c(=O)c2ccccc21` showed an absorption maximum (in O) of 410 nm.

`c1cc2c3c4c5c(cccc5cc3c1)-c1cccn1B4n1cccc1-2` showed an absorption maximum (in C1CCOC1) of 505 nm.

For `COc1cc2c3c(c4cc(OC)c(OC)c(OC)c4c2c(OC)c1OC)=[N+]1C(=C(c2c(C)cc(C)cc2C)c2cc4c5cc(OC)c(OC)c(OC)c5c5c(OC)c(OC)c(OC)cc5c4n2[B-]1(F)F)C=3`, the absorption maximum (in C1CCCCC1) was 733 nm, the absorption maximum (in C1CCOC1) was 730 nm and the absorption maximum (in CC#N) was 718 nm. The absorption maximum (in Cc1ccccc1) was 740 nm and the absorption maximum (in ClCCl) was 727 nm.

In the case of `COc1cccc2oc(-c3cc4c(OC)cccc4oc3=O)cc12`, the absorption maximum (in CC#N) is reported as 383 nm, the absorption maximum (in CCOC(C)=O) is reported as 385 nm and the absorption maximum (in CS(C)=O) is reported as 389 nm. The absorption maximum (in Cc1ccccc1) was 389 nm and the absorption maximum (in O) was 384 nm.

Compound `Brc1ccc2cc3c4ccccc4nc(-c4ccco4)c3n2c1` has an absorption maximum (in CS(C)=O) of 411 nm.

`C1=CN2C[n+]3ccc4ccccc4c3N=C2c2ccccc21` gave an absorption maximum (in CO) of 453 nm.

In the case of `CCOC(=O)CSc1nc2c(c(C#N)c1C#N)CCCC2`, the absorption maximum (in c1ccccc1) is reported as 364 nm.

For `CCCCCCCCCCOc1cc2cc(C#Cc3ccc(/C=C(\C#N)C(=O)O)cc3)c(=O)oc2cc1OCCCCCCCCCC`, the absorption maximum (in CC#N) was 398 nm.

In the case of `CCN(CC)c1ccc2c(c1)oc(=O)c1c(=O)oc3cc(Br)ccc3c12`, the absorption maximum (in CS(C)=O) is reported as 469 nm and the absorption maximum (in ClCCl) is reported as 466 nm.

Compound `CCOC(=O)c1c(-c2cc3cc(OC)ccc3oc2=O)nn(-c2cccc(C)c2)c1C(=O)OCC` has an absorption maximum (in ClCCl) of 351 nm.

`COC(=O)c1c(C(=O)OC)c2ccc(C)nn2c1C` showed an absorption maximum (in C1CCCCC1) of 380.4 nm.

With `CC(C)(C)c1ccc2c3ccccc3c3cncnc3c2c1` the absorption maximum (in ClCCl) was 348 nm.

In the case of `COc1cc(-c2cnc(-c3ccncc3)o2)cc(OC)c1OC`, the absorption maximum (in ClCCl) is reported as 332 nm.

For `CC(C)[Si]1(C(C)C)c2cc(C=O)ccc2-c2ccc(N(C)C)cc21`, the absorption maximum (in C1CCCCC1) was 390 nm, the absorption maximum (in CC#N) was 391 nm and the absorption maximum (in CCO) was 395 nm. The absorption maximum (in CCOCC) was 384 nm, the absorption maximum (in CS(C)=O) was 400 nm and the absorption maximum (in ClCCl) was 397 nm. For the same compound, the absorption maximum (in c1ccccc1) was 392 nm.

Work on `CN1/C(=C/C=C/C2=[N+](C)c3ccccc3C2(C)C)Sc2ccccc21` yielded an absorption maximum (in CS(C)=O) of 549 nm.

Work on `CC[n+]1c(-c2ccccc2)c2cc(N)ccc2c2ccc(NC(N)=O)cc21` yielded an absorption maximum (in O) of 458 nm.

With `CC1=[N+]2C(=C(c3ccc(C(=C(c4ccccc4)c4ccccc4)c4ccccc4)cc3)c3ccc(/C=C/c4ccc(C(=C(c5ccccc5)c5ccccc5)c5ccccc5)cc4)n3[B-]2(F)F)C=C1` the absorption maximum (in C1CCOC1) was 587 nm.

Work on `COc1cc2cc(/C=C/c3ccc(/C=C/c4ccc(/C=C(\C#N)C(=O)O)cc4)cc3)c(=O)oc2cc1OC` yielded an absorption maximum (in CC#N) of 415 nm.
